Assay results from US20240251802A1, “USE OF SATIVENE, AND RECOMBINANT BIOCONTROL FUNGUS AND MUSCARDINE CADAVER AND USE THEREOF” (priority 2022, published 2024).
“Also recorded” adds a separate entry of the source.

Key:
Type in all cases: in vivo
Drosophila larvae = experiment: Two-way choice method, attraction of Drosophila larvae; details: FIG. 2A/2B; for concentration dependence of attraction on Drosophila larvae: content gradients 10^−5 g to 10^−11 g
Experimental: Two-way choice method was used to detect the attraction of Galleria mellonella muscardine cadavers to Drosophila healthy larvae, with the device shown in FIG. 1A. New freezing-killed Galleria mellonella larvae were kept at a room temperature for 20 min(control) and one of the resulting Galleria mellonella muscardine cadaver was placed on both sides of a 9 cm petri dish (containing 2% water agar), and then 20 healthy 3-instar Canton-S Drosophila larvae were placed in the middle part of the petri dish. After 10 min, photographing was conducted to record the selection of Drosophila larvae, and a Response index was calculated [the Response index=(the number of Drosophila larvae selecting Galleria mellonella muscardine cadaver−the number of Drosophila larvae selecting control Galleria mellonella larvae)/the total number of Drosophila larvae (20)]. The experiment was repeated 6 times.
(§1) The muscardine cadaver was replaced by circular filter paper with a 5 mm diameter (containing 10 μl of different concentrations solutions of longifolene or sativene), and a control was a filter paper containing 10 μl of n-hexane solvent. Similarly, the method for detecting the attraction of muscardine cadavers to Galleria mellonella larvae and mosquitoes adults was also used to analyze the attraction of longifolene and sativene to these two kinds of insects. […]
(§2) According to the above device, the attraction of transgenic strain Mr-Tps and WT strain grown on PDA and on fermentation medium to mosquitoes was compared. The mycelia of transgenic strain Mr-Tps and WT strain grown on PDA and on fermentation medium for 14 d and with a fresh weight of 0.3 g were placed on both sides of the device, respectively, and a preference percentage was calculated after a period of treatment, where the preference percentage=the number of insects selecting mycelia of transgenic strain and WT strain/the total number of insects.

Aedes albopictus adults = experiment: Two-way choice method, attraction of adult mosquitoes; details: for content with the strongest attraction on mosquitoes: content gradients 10^−5 g to 10^−9 g on cotton balls vs n-hexane control, FIG. 2C/2D
Experimental: The detection on attraction of muscardine cadavers to mosquito (Aedes albopictus) adults was conducted according to a relevant literature (Robinson Ailic, Busula Annette O, Voets Mirjam A, Beshir Khalid B, Caulfield John C. Powers Stephen J, Verhulst Niels O, Winskill Peter, Muwanguzi Julian, Birkett Michael A, Smallegange Renate C, Masiga Daniel K, Mukabana W Richard, Sauerwein Robert W, Sutherland Colin J, Bousema Teun, Pickett John A, Takken Willem, Logan James G, de Boer Jetske G. Plasmodium-associated changes in human odor attract mosquitoes. Proc Natl Acad Sci USA 2018; 115: 4215), and the device used was shown in FIG. 1D. One of freeze-killed Galleria mellonella larvae (control) and one of the resulting Galleria mellonella muscardine cadaver were placed in a 3.5 cm ampoule, and placed in cylinders on both sides of the device. 10 female mosquitoes without blood meal 3 d to 5 d after eclosion were placed in the middle of a tube 1. Openings at both ends of the tube 1 were covered with gauze, and the tube was placed in a refrigerator at 4° C. for 3 min to reduce mosquito activities. Then the tube 1 was connected to tubes 2 and 3. The whole device was placed in a dark incubator at 26° C., and the selection of mosquitoes was recorded after 10 h. A Response index was calculated [the Response index=the number of mosquitoes selecting Galleria mellonella muscardine cadavers−the number of mosquitoes selecting freeze-killed Galleria mellonella larvae)/the total number of mosquitoes].
as §1, with “insects. In the Galleria mellonella attractive device, the muscardine cadaver was replaced by cotton balls with about 2 cm diameter (containing 100 μl different concentrations solutions of longifolene or sativene), and a control was cotton balls containing 100 μl of n-hexane solvent.” for “insects.”
as §2

[1] = tested on: Galleria mellonella larvae; experiment: Improved Two-way choice method, attraction of Galleria mellonella larvae; details: cotton balls with 100 μl solution vs n-hexane control, FIG. 3
Description: An improved Two-way choice method was used to detect the attraction of Galleria mellonella muscardine cadavers to Galleria mellonella healthy larvae, with the device shown in FIG. 1B. Three freeze-killed Galleria mellonella larvae (control) and three the resulting Galleria mellonella muscardine cadavers were placed in 9 cm petri dishes, and the petri dishes were placed diagonally in the device; 40 healthy Galleria mellonella larvae were released at the center point of the device, and placed at room temperature in dark. The selection of healthy Galleria mellonella larvae was recorded after 1 h. A Response index was calculated [the Response index=the number of Galleria mellonella larvae selecting Galleria mellonella muscardine cadavers−the number of Galleria mellonella larvae selecting freeze-killed Galleria mellonella larvae)/the total number of Galleria mellonella larvae]. The experiment was repeated 6 times.
as §1

**Q.** What does the source list for `C=C1C2CCC3C2C(C(C)C)CCC13C` (stereo not drawn) [sativene]?
**A.** lowest level to which Drosophila larvae respond (Drosophila larvae; content gradients 10^−5 g to 10^−11 g on filter paper vs n-hexane control): ≤ 10^−11 g; concentration dependence of attraction on Drosophila larvae (Drosophila larvae): a higher concentration of the sativene has a stronger attracting effect; also recorded: a higher concentration of the longifolene and sativene had a stronger attraction; content with the strongest attraction on mosquitoes (Aedes albopictus adults): 10^−5 g; concentration dependence of attraction on mosquitoes (Aedes albopictus adults; content gradients 10^−5 g to 10^−9 g, FIG. 2D): a higher concentration of the sativene has a stronger attracting effect; also recorded: a higher concentration of the sativene had a stronger attraction; attraction of Galleria mellonella larvae [1]: has insect attracting properties; also recorded: could also attract

**Q.** For `C=C1[C@H]2CC[C@@H]3[C@H]2C(C)(C)CCC[C@]13C` [longifolene], which “concentration dependence of attraction on Drosophila larvae” value (Drosophila larvae) is on record?
**A.** a higher concentration of the longifolene and sativene had a stronger attraction

**Q.** What about the “response of mosquitoes at 10^−9 g” value (Aedes albopictus adults; 10^−9 g, FIG. 2C) of the same compound?
**A.** little response

**Q.** And the “content with the strongest attraction on mosquitoes” value (Aedes albopictus adults)?
**A.** 10^−6 g

**Q.** What about the “attraction of Galleria mellonella larvae” value [1] of the same compound?
**A.** could also attract
